Results on 24 compounds are retold here after US20130029983A1, “AMINOTHIENOPYRIDAZINE INHIBITORS OF TAU ASSEMBLY” (priority 2009, published 2013).

Each structure is given as a SMILES string. Read-outs that look alike come from different tables or passages of the source.

Common to all, as to format: biochemical
Assay [1] addresses T1, K18PL tau (Homo sapiens, UniProt P10636, P618L).
T1 construct: (K18PL; amino acids 244-369); made in house
Briefly: K18PL tau centrifugation (sedimentation) assay, SDS-PAGE densitometry. The settings on record: K18PL tau centrifugation assay. As to the method:
The determination of compound-induced effects on the amount of tau that remains soluble upon centrifugation, and EM visualization of tau species following incubation with test compounds, were as previously described (Crowe, A., Ballatore, C., Hyde, E., Trojanowski, J. Q., and Lee, V. M. Y. (2007) Biochemical and Biophysical Research Communications 358, 1-6).
(§1) The solubility of test compounds in the sodium acetate buffer used for subsequent fibrillization reactions was determined by turbidimetric measurements. Compounds were then evaluated in a heparin-induced tau assembly assay, in which the fibrillization of the truncated K18 tau fragment (comprised of four MT-binding repeats) bearing the P301L mutation (K18PL) found in FTDP-17, was monitored by thioflavine-T (ThT) binding and fluorescence (FIG. 3A). (Crowe, A.; et al., Identification of aminothienopyridazine inhibitors of tau assembly by quantitative high-throughput screening. Biochemistry 2009, 48, 7732-45.) The inhibitory activity of test compounds was then confirmed with an orthogonal sedimentation assay in which compound-treated fibrillizing mixtures were centrifuged and quantitation of K18PL tau in the soluble and insoluble fraction was performed by densitometric analyses of SDS-PAGE (FIG. 3B). […] Thus, the tau fibrillization assay was repeated in which both DMSO- and compound-treated mixtures were initially centrifuged for 30 min. prior to incubation (i.e., at time zero of the fibrillization reaction) to remove any pelletable material.

The target in the next assay is T2, Aβ(1-42) (Homo sapiens, UniProt P05067).
T2 construct: Synthetic Aβ(1-42) peptide (rPeptide); purchased rPeptide
Briefly: Aβ(1-42) fibrillization assay (ThT). The settings on record: Table 3, highest tested concentration (80 μM); for inhibition at 80 µM: read-out: Aβ42 ThT Assay % Inhib.

Assay [2] has as its target T1, K18PL tau. Briefly: Heparin-induced K18PL tau fibrillization assay monitored by ThT fluorescence. Conditions: for inhibition at 80 µM / Tau ThT Assay % Inhib.: highest tested concentration (80 μM); for inhibition at 80 µM: read-out: Tau ThT Assay % Inhib.; for IC50 / Tau ThT Assay Log IC50: logarithm of IC50, K18PL tau ThT fluorescence inhibition; for IC50: read-out: Tau ThT Assay Log IC50 (converted). As for the experimental part: Tau fibril formation reactions were performed essentially as described (Crowe, A., Ballatore, C., Hyde, E., Trojanowski, J. Q., and Lee, V. M. Y. (2007) Biochemical and Biophysical Research Communications 358, 1-6). K18PL (2 μl of a 30 μM stock that also contained 0.24 μM Alexa Red-labeled K18PL) was dispensed into black 1536-well plates (Grenier) using a solenoid-based dispenser. Following transfer of 23 nL of test compound or DMSO vehicle by a pin tool from compound library plates, 2 μl/well of 40 μM heparin in reagent buffer was dispensed and the plate was centrifuged for 15 s at 1000 rpm in a table-top centrifuge. The fibrillization reaction proceeded for 6 hours at 37° C. in a humidified incubator (Kalypsys).
K18PL fibril formation was quantified with a ThT assay as previously described (Crowe, A., Ballatore, C., Hyde, E., Trojanowski, J. Q., and Lee, V. M. Y. (2007) Biochemical and Biophysical Research Communications 358, 1-6). Briefly, 1 μl/well of 62.5 μM ThT (Sigma) in 100 mM glycine, pH 8.5 (12.5 μM final concentration) was dispensed into 1536-well plates after completion of the fibrillization reaction and incubated at room temperature for 1 hour. Plates were read on an Envision fluorescence plate reader with an excitation of 450 nm and an emission setting of 510 nm.
Compound effects on tau assembly were determined for the ThT and FP assays using the formula 1−(Fcompound− FDMSO)/( Fcontrol− FDMSO), where Fcontrol denotes the median plate fluorescence values (ThT assay) or mP values (FP assay) of the non-fibrillizing K18 KD control wells, FDMSO denotes the median value of the DMSO control wells, and Fcompound denotes the compound well values. The resulting values were multiplied by 100 to obtain the percent inhibition of tau fibril formation.
as §1

Setting [3] is: Table 3, NC = not calculated due to insufficient activity.

T2 sequence (P05067 672-713 limits assumed): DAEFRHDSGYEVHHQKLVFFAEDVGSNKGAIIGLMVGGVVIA
T1 sequence (P10636 561-686 P618L): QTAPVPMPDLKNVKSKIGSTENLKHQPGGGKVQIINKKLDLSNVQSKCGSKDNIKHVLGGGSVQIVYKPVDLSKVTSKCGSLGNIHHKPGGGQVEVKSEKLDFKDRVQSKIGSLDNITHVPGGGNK

The IC50 is the concentration that inhibits the measured activity by half. For `Nc1scc2c(C(=O)NCc3ccccc3)nn(-c3ccccc3)c(=O)c12` [Compound 8a], the “Tau Cent. Assay % Soluble” value on K18PL tau [1] (Table 3) was found to be 54%. In addition, the inhibition at 80 µM on Aβ(1-42) was found to be 27%; at K18PL tau [2] (Table 3), 80%. Also, the concentration for half-maximal inhibition (IC50) on K18PL tau [2] (setting [3]) was 7.94 µM.

In the case of `CCOC(=O)c1nn(-c2ccccc2)c(=O)c2c(N)sc(C)c12` [Compound 5f], the “Tau Cent. Assay % Soluble” value on K18PL tau [1] (Table 3) was 4%. The inhibition at 80 µM on Aβ(1-42) was found to be 21%; on K18PL tau [2] (Table 3), 35%.

`CCN(CC)C(=O)c1nn(-c2ccc(OC)cc2)c(=O)c2c(N)scc12` [Compound 8d]: the “Tau Cent. Assay % Soluble” value on K18PL tau [1] (Table 3) amounted to 99%. In addition, the inhibition at 80 µM on Aβ(1-42) was determined as 35%; at K18PL tau [2] (Table 3) it was 95%. For the same compound, at K18PL tau [2] (setting [3]), the IC50 is 10 µM.

Take `Nc1scc2c(C(=O)O)nn(-c3ccccc3)c(=O)c12` [Compound 6a]: the “Tau Cent. Assay % Soluble” value at K18PL tau [1] (Table 3) turned out to be 84%. The inhibition at 80 µM on Aβ(1-42) turned out to be 20%; on K18PL tau [2] (Table 3) it was 92%. Also, the half-inhibitory concentration (IC50) on K18PL tau [2] (setting [3]) was 7.94 µM.

Regarding `CCOC(=O)c1nn(-c2ccc(C)cc2)c(=O)c2c(N)scc12` [Compound 5h], the “Tau Cent. Assay % Soluble” value at K18PL tau [1] (Table 3) came to 35%. The results for the inhibition at 80 µM on Aβ(1-42) and at K18PL tau [2] (Table 3) were 12% and 51%, respectively. Also, at K18PL tau [2] (setting [3]), the half-maximal inhibitory concentration (IC50) was 126 µM.

`CCOC(=O)c1nn(-c2ccccc2)c(=O)c2c(N)scc12` [Compound 5a]: the “Tau Cent. Assay % Soluble” value on K18PL tau [1] (Table 3) is 55%. Also, the “Aβ42 ThT Assay % Inhib.” value at Aβ(1-42) was −1%. In addition, the “Tau ThT Assay % Inhib.” value on K18PL tau [2] (Table 3) is recorded as 80%. Moreover, the “Tau ThT Assay Log IC50” value on K18PL tau [2] (setting [3]) is −5.2.

In the case of `CC(=O)Nc1sc(C)c2cnn(-c3ccccc3)c(=O)c12` [Compound 16], the “Tau Cent. Assay % Soluble” value at K18PL tau [1] (Table 3) worked out at 5%. In addition, the inhibition at 80 µM at Aβ(1-42) is -11%; on K18PL tau [2] (Table 3) it was 11%.

For the compound `COC(=O)c1nn(-c2ccc(F)cc2)c(=O)c2c(N)scc12` [Compound 18], the “Tau Cent. Assay % Soluble” value at K18PL tau [1] (Table 3) came out at 64%. Besides, the values for the inhibition at 80 µM at Aβ(1-42) and at K18PL tau [2] (Table 3) were 29% and 86%, respectively. For the same compound, the IC50 on K18PL tau [2] (setting [3]) is 5.01 µM.

On to `COc1ccc(-n2nc(C(=O)O)c3csc(N)c3c2=O)cc1` [Compound 6b], for which the “Tau Cent. Assay % Soluble” value on K18PL tau [1] (Table 3) is given as 95%. The inhibition at 80 µM came to 1% at Aβ(1-42) and 94% on K18PL tau [2] (Table 3). In addition, the 50% inhibitory concentration (IC50) on K18PL tau [2] (setting [3]) was 2.51 µM.

Turning to `CCOC(=O)c1nn(-c2ccc(Cl)c(Cl)c2)c(=O)c2c(N)scc12` [Compound 5g], on K18PL tau [1] (Table 3), the “Tau Cent. Assay % Soluble” value was 12%. The figures for the inhibition at 80 µM on Aβ(1-42) and at K18PL tau [2] (Table 3) were 6% and 29%, respectively.

For `CCOC(=O)c1nn(-c2ccc(C)c(C)c2)c(=O)c2c(N)scc12` [Compound 5c], at K18PL tau [1] (Table 3), the “Tau Cent. Assay % Soluble” value was determined as 28%. Also, the inhibition at 80 µM at Aβ(1-42) is 7%; at K18PL tau [2] (Table 3), 48%.

For `Cc1nn(-c2ccc(Cl)cc2)c(=O)c2c(N)scc12` [CNDR-51400], on K18PL tau [1] (Table 4), the “Tau Cent. Assay % Soluble” value is 90%. At K18PL tau [2] (Table 4), the “Tau ThT Assay % Inhib.” value is on record as 87% and the “Tau ThT Assay Log IC50” value was −5.9.

Take `Nc1scc2c(C(=O)NC3CC3)nn(-c3ccc(F)cc3)c(=O)c12` [CNDR-51397, 5-Amino-N-cyclopropyl-3-(4-fluorophenyl)-4-oxo-3,4-dihydrothieno[3,4-d]pyridazine-1-carboxamide]: the “Tau Cent. Assay % Soluble” value at K18PL tau [1] (Table 4) came out at 78%. Also, at K18PL tau [2] (Table 4), the inhibition at 80 µM was 88% and the “Tau ThT Assay Log IC50” value is reported as −5.6.

Regarding `CCOC(=O)c1nn(-c2ccccc2)c(=O)c2c(NC(=O)c3ccccc3)scc12` [Compound 9c], at K18PL tau [1] (Table 3), the “Tau Cent. Assay % Soluble” value came out at 2%. The inhibition at 80 µM at Aβ(1-42) is -7%; on K18PL tau [2] (Table 3), 8%.

Regarding `CCOC(=O)c1nn(-c2ccccc2F)c(=O)c2c(N)scc12` [CNDR-51439, Ethyl 5-amino-3-(2-fluorophenyl)-4-oxo-3,4-dihydrothieno[3,4-d]pyridazine-1-carboxylate], the “Tau Cent. Assay % Soluble” value on K18PL tau [1] (Table 4) amounted to 41%. For the same compound, at K18PL tau [2] (Table 4), the inhibition at 80 µM came out at 48% and the IC50 is 0.794 µM.

Consider `CCOC(=O)c1nn(-c2ccc(O)cc2)c(=O)c2c(N)scc12` [CNDR-51363, Ethyl 5-amino-3-(4-hydroxyphenyl)-4-oxo-3,4-dihydrothieno[3,4-d]pyridazine-1-carboxylate], for which, at K18PL tau [1] (Table 4), the “Tau Cent. Assay % Soluble” value is given as 69%. Further, at K18PL tau [2] (Table 4), the inhibition at 80 µM worked out at 81% and the “Tau ThT Assay Log IC50” value was −5.3.

For the compound `CC(C)NC(=O)c1nn(-c2ccc(F)cc2)c(=O)c2c(N)scc12` [CNDR-51396, 5-Amino-3-(4-fluorophenyl)-N-isopropyl-4-oxo-3,4-dihydrothieno[3,4-d]pyridazine-1-carboxamide], the “Tau Cent. Assay % Soluble” value on K18PL tau [1] (Table 4) is 77%. Moreover, at K18PL tau [2] (Table 4), the inhibition at 80 µM turned out to be 89% and the “Tau ThT Assay Log IC50” value is reported as −5.8.

With `Nc1scc2c(C(=O)O)nn(-c3ccc(Br)cc3)c(=O)c12` [CNDR-51389, 5-Amino-3-(4-bromophenyl)-4-oxo-3,4-dihydrothieno[3,4-d]pyridazine-1-carboxylic acid], on K18PL tau [1] (Table 4), the “Tau Cent. Assay % Soluble” value came to 78%. In addition, on K18PL tau [2] (Table 4), the inhibition at 80 µM came to 95% and the half-inhibitory concentration (IC50) was 3.16 µM.

Regarding `CCOC(=O)c1nn(-c2ccc(C(F)(F)F)cc2)c(=O)c2c(N)scc12` [CNDR-51373, Ethyl 5-amino-4-oxo-3-(4-(trifluoromethyl)phenyl)-3,4-dihydrothieno[3,4-d]pyridazine-1-carboxylate], the “Tau Cent. Assay % Soluble” value at K18PL tau [1] (Table 4) is recorded as 27%. Besides, at K18PL tau [2] (Table 4), the inhibition at 80 µM amounted to 48% and the IC50 was 10 µM.

`CCOC(=O)c1nn(-c2ccccc2Cl)c(=O)c2c(N)scc12` [CNDR-51425, Ethyl 5-amino-3-(2-chlorophenyl)-4-oxo-3,4-dihydrothieno[3,4-d]pyridazine-1-carboxylate]: at K18PL tau [1] (Table 4), the “Tau Cent. Assay % Soluble” value was 61%. Moreover, at K18PL tau [2] (Table 4), the inhibition at 80 µM was determined as 87% and the IC50 is 5.01 µM.

For `CCOC(=O)c1nn(-c2ccc(OC)cc2)c(=O)c2c(NC(=O)Cc3ccccc3)scc12` [Compound 9a], the “Tau Cent. Assay % Soluble” value on K18PL tau [1] (Table 3) turned out to be 0%. The “Tau ThT Assay % Inhib.” value at K18PL tau [2] (Table 3) is given as 31%.

Regarding `CC(C)NC(=O)c1nn(-c2ccc(O)cc2)c(=O)c2c(N)scc12` [CNDR-51376, 5-Amino-3-(4-hydroxyphenyl)-N-isopropyl-4-oxo-3,4-dihydrothieno[3,4-d]pyridazine-1-carboxamide], the “Tau Cent. Assay % Soluble” value at K18PL tau [1] (Table 4) was 84%. Also, on K18PL tau [2] (Table 4), the inhibition at 80 µM was 86% and the “Tau ThT Assay Log IC50” value is −4.8.

Regarding `CCOC(=O)c1nn(-c2ccccc2-c2ccccc2)c(=O)c2c(N)scc12` [CNDR-51435, Ethyl 3-([1,1′-biphenyl]-2-yl)-5-amino-4-oxo-3,4-dihydrothieno[3,4-d]pyridazine-1-carboxylate], on K18PL tau [1] (Table 4), the “Tau Cent. Assay % Soluble” value came to 65%. Further, at K18PL tau [2] (Table 4), the inhibition at 80 µM amounted to 78% and the IC50 was 0.794 µM.

Take `Nc1scc2c(C(=O)O)nn(-c3cccc(Cl)c3)c(=O)c12` [CNDR-51388, 5-Amino-3-(3-chlorophenyl)-4-oxo-3,4-dihydrothieno[3,4-d]pyridazine-1-carboxylic acid]: the “Tau Cent. Assay % Soluble” value on K18PL tau [1] (Table 4) is 71%. On K18PL tau [2] (Table 4), the inhibition at 80 µM turned out to be 92% and the “Tau ThT Assay Log IC50” value is −5.8.
